Values joined by “and” are separate entries in the source; they are usually repeats but may differ in a detail not shown here. Equal values may be shown once.
How the values were obtained:
[1] = test system: platelet thrombus formation on damaged aortic wall; assay: Indium 111 platelet labeling technique in rabbits (platelet accumulation at vessel wall); assay type: in vivo
Protocol: In medicine, for example, arterial thrombosis is diagnosable by clinical manifestations, by arteriography, and recently, by an Indium 111 platelet labeling technique (see, for example, the article entitled "Differential , Effects of Two Doses of Aspirin on Platelet-Vessel Wall Interaction In Vivo" by K.K. Wu et al being published in the Journal of Clinical Investigtion, August, 1981).
Sodium bisulfite is evaluated under in vivo conditions as an antithrombotic agent using the anti-indium 111 platelet labeling technique in rabbits (see the Wu et al article above cited). The material was administered by intravenous injection (72.80 milligram per kilogram of animal body weight). […]

FIBRINOGEN = target: T1, FIBRINOGEN (Homo sapiens, UniProt P02671+P02675+P02679); assay: Coagulation factor assay (Biggs): fibrinogen; assay type: biochemical; details: for FIBRINOGEN (mg%): U.S.P. grade, control 218
T1 construct: from tissue; host or cells: human plasma
T1 sequence (P02671 20-629 limits assumed): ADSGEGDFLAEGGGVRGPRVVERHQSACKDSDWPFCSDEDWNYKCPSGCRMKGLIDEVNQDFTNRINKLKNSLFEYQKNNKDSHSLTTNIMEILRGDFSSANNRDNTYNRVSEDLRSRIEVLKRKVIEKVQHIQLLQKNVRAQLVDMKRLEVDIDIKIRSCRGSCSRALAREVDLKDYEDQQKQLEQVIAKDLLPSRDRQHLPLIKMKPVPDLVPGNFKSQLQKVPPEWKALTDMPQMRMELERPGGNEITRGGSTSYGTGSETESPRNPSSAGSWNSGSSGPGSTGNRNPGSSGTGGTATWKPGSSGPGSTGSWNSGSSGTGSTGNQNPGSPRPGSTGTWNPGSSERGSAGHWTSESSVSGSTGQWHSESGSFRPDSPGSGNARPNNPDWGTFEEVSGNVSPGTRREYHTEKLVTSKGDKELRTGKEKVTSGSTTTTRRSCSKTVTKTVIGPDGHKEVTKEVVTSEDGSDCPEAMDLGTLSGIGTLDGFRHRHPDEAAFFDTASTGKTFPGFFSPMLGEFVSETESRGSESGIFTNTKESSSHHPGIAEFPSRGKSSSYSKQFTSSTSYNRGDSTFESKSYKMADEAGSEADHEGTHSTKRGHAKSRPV
T1 sequence (P02675 31-491): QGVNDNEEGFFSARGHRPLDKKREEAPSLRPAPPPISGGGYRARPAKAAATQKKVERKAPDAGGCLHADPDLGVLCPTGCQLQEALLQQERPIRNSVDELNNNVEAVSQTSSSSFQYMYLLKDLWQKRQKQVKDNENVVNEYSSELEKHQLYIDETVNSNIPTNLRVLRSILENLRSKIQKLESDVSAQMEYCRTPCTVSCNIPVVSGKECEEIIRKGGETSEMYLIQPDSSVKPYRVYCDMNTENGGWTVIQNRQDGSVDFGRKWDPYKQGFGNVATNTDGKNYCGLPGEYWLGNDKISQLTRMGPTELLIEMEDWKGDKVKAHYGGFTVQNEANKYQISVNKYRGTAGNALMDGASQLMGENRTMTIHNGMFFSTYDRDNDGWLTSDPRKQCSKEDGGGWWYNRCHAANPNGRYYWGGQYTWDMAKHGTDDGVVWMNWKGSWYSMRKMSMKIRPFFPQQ
T1 sequence (P02679 27-453): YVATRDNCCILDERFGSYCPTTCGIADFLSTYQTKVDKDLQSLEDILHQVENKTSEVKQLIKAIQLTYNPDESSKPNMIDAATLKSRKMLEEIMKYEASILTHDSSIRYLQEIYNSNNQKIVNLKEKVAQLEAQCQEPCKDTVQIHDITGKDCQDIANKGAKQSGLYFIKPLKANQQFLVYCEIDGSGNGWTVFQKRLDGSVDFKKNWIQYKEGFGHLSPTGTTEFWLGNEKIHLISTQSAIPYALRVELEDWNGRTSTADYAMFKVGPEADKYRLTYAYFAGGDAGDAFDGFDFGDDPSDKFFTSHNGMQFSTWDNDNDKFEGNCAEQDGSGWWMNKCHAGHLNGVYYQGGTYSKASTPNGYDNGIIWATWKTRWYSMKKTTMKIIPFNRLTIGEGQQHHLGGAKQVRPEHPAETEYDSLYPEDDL
Protocol: (§1) The effect of U.S.P. grade sodium bisulfite on blood coagulation factors is evaluated by standard procedures (Biggs) and the results are shown in Table III below.
(§2) References for PT, PTT, and assays of all the coagulation factors can be found in a standard textbook, entitled "Human Blood Coagulation, Haemostasis and Thrombosis", edited by Rosemary Biggs, published by Blackwell Scientific Publications, Oxford, England (2nd edition), pages 670-705, 1976.

FACTOR V = target: T2, FACTOR V (Homo sapiens, UniProt P12259); assay: Coagulation factor assay (Biggs): Factor V; assay type: biochemical; details: U.S.P. grade, control 75
T2 construct: from tissue; host or cells: human plasma
T2 sequence (P12259 29-2224): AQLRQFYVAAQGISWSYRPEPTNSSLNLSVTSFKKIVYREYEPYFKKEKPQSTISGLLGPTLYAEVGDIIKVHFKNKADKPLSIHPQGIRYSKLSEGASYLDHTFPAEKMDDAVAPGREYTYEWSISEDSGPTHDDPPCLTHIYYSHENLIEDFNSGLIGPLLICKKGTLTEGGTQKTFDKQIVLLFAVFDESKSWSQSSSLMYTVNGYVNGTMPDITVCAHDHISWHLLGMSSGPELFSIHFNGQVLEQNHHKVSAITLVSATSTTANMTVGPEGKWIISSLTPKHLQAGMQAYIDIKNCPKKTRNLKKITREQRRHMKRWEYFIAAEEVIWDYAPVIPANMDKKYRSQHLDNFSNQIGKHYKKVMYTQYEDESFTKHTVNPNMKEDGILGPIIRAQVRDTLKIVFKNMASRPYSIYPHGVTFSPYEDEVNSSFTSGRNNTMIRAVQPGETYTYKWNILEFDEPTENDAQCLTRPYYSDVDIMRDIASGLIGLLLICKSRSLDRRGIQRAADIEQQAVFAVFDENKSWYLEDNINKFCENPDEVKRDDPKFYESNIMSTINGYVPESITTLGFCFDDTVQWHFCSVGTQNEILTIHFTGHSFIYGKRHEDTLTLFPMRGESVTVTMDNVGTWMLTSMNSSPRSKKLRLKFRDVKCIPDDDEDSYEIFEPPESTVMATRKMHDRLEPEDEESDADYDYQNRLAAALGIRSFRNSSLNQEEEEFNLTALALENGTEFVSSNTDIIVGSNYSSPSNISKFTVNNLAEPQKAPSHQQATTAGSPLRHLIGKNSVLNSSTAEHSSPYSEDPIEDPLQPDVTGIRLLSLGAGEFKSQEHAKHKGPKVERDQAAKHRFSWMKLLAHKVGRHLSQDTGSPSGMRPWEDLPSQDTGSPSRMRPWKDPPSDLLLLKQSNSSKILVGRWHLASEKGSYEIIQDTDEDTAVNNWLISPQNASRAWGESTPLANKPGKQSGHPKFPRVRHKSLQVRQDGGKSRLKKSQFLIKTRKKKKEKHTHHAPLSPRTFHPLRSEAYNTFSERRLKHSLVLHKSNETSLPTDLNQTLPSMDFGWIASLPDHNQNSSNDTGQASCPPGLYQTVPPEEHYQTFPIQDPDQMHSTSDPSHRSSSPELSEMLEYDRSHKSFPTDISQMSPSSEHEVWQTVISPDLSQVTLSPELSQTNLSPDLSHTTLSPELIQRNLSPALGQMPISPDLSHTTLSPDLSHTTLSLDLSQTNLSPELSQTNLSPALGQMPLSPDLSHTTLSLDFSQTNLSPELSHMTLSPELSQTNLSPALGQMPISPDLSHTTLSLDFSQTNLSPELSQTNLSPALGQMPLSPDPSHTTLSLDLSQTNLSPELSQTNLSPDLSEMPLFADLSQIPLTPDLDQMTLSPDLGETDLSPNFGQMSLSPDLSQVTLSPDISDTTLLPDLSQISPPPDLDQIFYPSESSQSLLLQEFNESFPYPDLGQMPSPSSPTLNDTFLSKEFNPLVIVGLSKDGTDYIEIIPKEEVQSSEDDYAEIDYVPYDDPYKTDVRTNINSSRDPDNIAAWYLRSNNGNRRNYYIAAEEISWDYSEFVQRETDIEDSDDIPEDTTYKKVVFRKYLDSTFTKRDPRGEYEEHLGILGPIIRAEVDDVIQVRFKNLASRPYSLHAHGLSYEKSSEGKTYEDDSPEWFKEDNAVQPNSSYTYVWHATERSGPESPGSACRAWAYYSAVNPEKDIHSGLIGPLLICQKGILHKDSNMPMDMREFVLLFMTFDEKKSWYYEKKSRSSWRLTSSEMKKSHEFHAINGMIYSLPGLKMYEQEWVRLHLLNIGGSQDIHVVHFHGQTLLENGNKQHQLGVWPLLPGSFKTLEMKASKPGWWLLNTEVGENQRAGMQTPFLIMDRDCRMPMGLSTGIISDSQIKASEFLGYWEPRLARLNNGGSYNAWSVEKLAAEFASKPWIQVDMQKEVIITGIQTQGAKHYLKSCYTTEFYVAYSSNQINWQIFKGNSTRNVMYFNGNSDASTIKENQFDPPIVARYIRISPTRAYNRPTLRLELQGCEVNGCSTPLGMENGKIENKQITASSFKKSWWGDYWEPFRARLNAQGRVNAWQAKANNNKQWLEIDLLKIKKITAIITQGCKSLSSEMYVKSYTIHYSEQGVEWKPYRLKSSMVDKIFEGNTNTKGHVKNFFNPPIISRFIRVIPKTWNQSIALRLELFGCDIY
Protocol: as §1, §2

human plasma = assay: Blood coagulation evaluation by standard procedures (Biggs), overall result; assay type: biochemical; details: 5 mg/ml
Protocol: as §1
When this procedure is repeated using human plasma,
References for PT, PTT, and assays in vitro of all the coagulation factors can be found in a standard textbook, entitled "Human Blod Coagulation, Haemostatis and Thrombosis", edited by Rosemary Biggs, published by Blackwell Scientific Publications, Oxford, England (2nd edition), pages 670-705, 1976.

[2] = Human use, oral drops with meals (case histories); assay type: in vivo
Description: To evaluate the effect of sodium bisulfite in human use (this agent being known to be safe for human consumption), certain patients received this agent. The case history and observations are summarized individually below.
In each case, each patient is provided with such a bottle of Solution D, unless otherwise noted, and is instructed to dose himself (or herself, as the case may be) from the bottle so provided at the rate of seven drops to be taken orally with each of his (her) three daily meals. When the contents of one such bottle is thus so gradually consumed by an individual patient, another is provided to him (her).

platelet rich plasma = assay: Platelet aggregation in platelet rich plasma, ADP stimulus (Example 25); assay type: cell-based; details: plasma first treated with the compound
Description: Plasma was centrifuged at 1000 r.p.m. (200 g) to prepare a platelet rich plasma. Using adosine diphosphate (ADP) as a stimulous, rapid aggregation of platelets in the plasma was efected. On the other hand, when such plasma is first treatd with (a) tetramethyl ammonium sulfite, (b) tetramethyl ammonium bisulfite, and then (c) tetrabutyl

With Sodium bisulfite as the compound, how does the “reduces accumulation of platelet thrombus at the damaged vessel wall” value ([1]; intravenous injection 72.80 milligram per kilogram) read?
The value was “The findings indicate that the active agent reduces accumulation of platelet thrombus at the damaged vessel wall by 70%”.

What about the “Platelet Accumulation II. at normal vessel wall %” value ([1]; intravenous injection 72.80 milligram per kilogram, rabbits A and B, control 0.03± 0.02) of the same compound?
Its value is 0.08%.

What about the “Platelet Accumulation II. at normal vessel wall cpm/gm” value ([1]; intravenous injection 72.80 milligram per kilogram, rabbits A and B, control 72,140± 39,040) of the same compound?
The value was 98,611 cpm/gm and 83,066 cpm/gm.

And the “Platelet Accumulation I. at damaged vessel wall cpm/gm” value ([1]; intravenous injection 72.80 milligram per kilogram, rabbits A and B, count per minute per gram dry weight of tissue, control 1,167,820± 21,310)?
Its value is 133,986 cpm/gm and 146,630 cpm/gm.

What about the “Platelet Accumulation I. at damaged vessel wall %” value ([1]; intravenous injection 72.80 milligram per kilogram, rabbits A and B, percentage of injected radioactivity per gram dry weight of tissue, control 0.44± 0.08) of the same compound?
The value was 0.11% and 0.15%.

What about the “FIBRINOGEN (mg%)” value (FIBRINOGEN; 0.01 mg/ml) of the same compound?
Its value is 222 mg%.

And the “FIBRINOGEN (mg%)” value (FIBRINOGEN; 0.05 mg/ml)?
The value was 228 mg%.

What about the “FIBRINOGEN (mg%)” value (FIBRINOGEN; 0.1 mg/ml) of the same compound?
Its value is 217 mg%.

What about the “FIBRINOGEN (mg%)” value (FIBRINOGEN; 0.5 mg/ml) of the same compound?
Its value is 190 mg%.

What about the “FIBRINOGEN (mg%)” value (FIBRINOGEN; 1.0 mg/ml) of the same compound?
Its value is 185 mg%.

And the “FIBRINOGEN (mg%)” value (FIBRINOGEN; 5.0 mg/ml)?
Its value is 130 mg%.

And the “FACTOR V (%)” value (FACTOR V; 0.01 mg/ml)?
Its value is 74%.

And the “FACTOR V (%)” value (FACTOR V; 0.05 mg/ml)?
Its value is 72%.

And the “FACTOR V (%)” value (FACTOR V; 0.1 mg/ml)?
Its value is 80%.

And the “FACTOR V (%)” value (FACTOR V; 0.5 mg/ml)?
The value was 70%.

What about the “FACTOR V (%)” value (FACTOR V; 1.0 mg/ml) of the same compound?
The value was 60%.

And the “FACTOR V (%)” value (FACTOR V; 5.0 mg/ml)?
The value was 54%.

And the “coagulation of human plasma” value (human plasma)?
The value was “completely disrupted”.

What about the “Case IV: blood cholesterol value” ([2]; after about 5 years of medication, before between 200 and 220 mg %) of the same compound?
Its value is “about 144 mg %”.

What about the “Case IV: hypertension, arthritis, arrithmia, hemorrhoids, dispepsia, cyanotic fingers and toes, malaise, lassitude” value ([2]; man, Solutions A, B, C, or D orally, up to 20 drops per meal, within 2-3 months) of the same compound?
The value was “all of the above identified conditions improved (except for diabetes)”.

What does the source list for `CCN(CC)CC.O=S(O)O` [TRIETHYL AMINE BISULFITE, triethyl amine bisulfite]?
mortality of another rabbit so tested ([1]; intervenous injection 127.39 mg/kg): died; reduction in accumulation of platelet thrombus ([1]; intervenous injection 127.39 mg/kg, equivalent to 0.01 molar concentrations in blood): about 30%; Fibrinogen (%) (FIBRINOGEN; mean of two experiments, control 205): 125%

With `C[N+](C)(C)C` [Tetramethyl-ammonium bisulfite] as the compound, how does the “platelet aggregation, adosine diphosphate (ADP) as a stimulous” value (platelet rich plasma) read?
The value was “inhibited”.
